Results from publication PMC8353992 (Journal of medicinal chemistry, 2021).

Target: SARS-CoV-2 3CL^pro (Severe acute respiratory syndrome coronavirus 2, UniProt P0DTD1)
Format: biochemical

SMILES | primary biochemical potency
O=C(Cc1cccnc1)N(Cc1cccc(Cl)c1)c1ccc(-c2cn[nH]c2)cc1 [Compound 42, N-[(3-Chlorophenyl)methyl]-N-[4-(1H-pyrazol-4-yl)phenyl]-2-(3-pyridyl)acetamide] | micromolar levels
O=C(Cc1cncnc1)N(Cc1cccc(Cl)c1)c1ccc(-c2cn[nH]c2)cc1 [Compound 43, N-[(3-Chlorophenyl)methyl]-N-[4-(1H-pyrazol-4-yl)phenyl]-2-pyrimidin-5-yl-acetamide] | micromolar levels
